Experimental data from US9162992B2, “Compounds and compositions for treatment of breathing control disorders or diseases” (GALLEON PHARMACEUTICALS, INC., priority 2010, dated 2015).

Tested on: midazolam-induced respiratory depression
Test: Benzodiazepine-induced respiratory depression (BIRD), midazolam, rat plethysmography
Type: in vivo
Description: Compound (XXXVI) was dissolved in 20% hydroxypropyl-beta-cyclodextran in sterile water, and titrated to a pH of 4-8 using pH paper and NaOH or HCl, resulting in a clear, stable solution at a concentration of 1.5 mg/mL. Other compounds: morphine sulfate, supplied as 10 mg/mL solution by (Baxter, Inc) and midazolam, supplied as 5 mg/mL solution (Hospira, Inc.)
Male Sprague-Dawley rats (Harlan, Inc.), 250-350 g at time of dosing, surgically prepared by Harlan with jugular vein cannulas. 12 Chamber Plethysmography System with temperature/humidity compensation (Epstein et al., 1980, J. Apply Physiol. 49:1107-1115); From Buxco, Inc. (PLY 3223; Buxco, Inc, Wilmington, N.C., USA) Biosystem XA, software, v2.11.1. Customized 12 site automated infusion system (Harvard Apparatus; Instech, Inc)
Rat whole body plethysmography was used to evaluate and quantify minute ventilation and the pattern of breathing. A respiratory waveform was generated from the exchange of air between the animal and the chamber. This exchange induced changes in air volume that were measured with a pressure transducer, constituting the respiratory waveform. Atmospheric temperature and humidity were also measured using temperature and humidity probes which sampled chamber conditions. A compensation factor was then determined and applied to the respiratory waveform using a standardized algorithm (Epstein et al., 1980, J. Apply Physiol. 49:1107-1115) to compensate for respiratory conditioning, which was reported as the parameter COMP (see appendix).
All animals were acclimated to plethysmography chambers for at least 1 hour, or until animals were no longer restless (up to 2 hours) prior to data collection. Bolus intravenous (IV) dosing was administered at a rate of 5-10 seconds per dose, and catheters were flushed with 350 μL of sterile saline to be sure of complete drug delivery. […] All plethysmography data was recorded automatically by the Buxco equipment.
Respiratory data were collected on a breath-by-breath basis and averaged into 1 min time bins for data analysis. For each designated acquisition phase, which is the time between doses, percent change from pre-treatment baseline values were calculated for each cohort on multiple ventilatory parameters including respiratory frequency (f), tidal volume (TV), accumulated volume (AV), minute ventilation (MV), inspiratory time (Ti), expiratory time (Te), peak inspiratory flow (PIF), peak expiratory flow (PEF), relaxation time (RT), end inspiratory pause (EIP), end expiratory pause (EEP), delta volume (DV), expiratory flow at 50% TV (EF50), rejection index (Rinx), compensation (Comp), enhanced pause (Penh), pause (PAU), PEF rate (Rpef), relative humidity (RH), and atmospheric temperature (Temp). […]

CCCNc1nc(NCCC)nc(N(C)OC)n1.O=S(=O)(O)O [XXXVI, N-(4,6-Bis-n-propylamino-[1,3,5]triazin-2-yl)-N,O-dimethyl-hydroxylamine hydrogen sulfate]
effect on f, Ti, RT, EIP, dv, EF50, Rinx, Comp, Penh, PAU, Rpef, RH and Temp (0.1 mg/kg/min infusion 30 min): had no obvious effect
effects of midazolam on MV, TV, AV, Te, PIF, PEF and EEP (0.1 mg/kg/min infusion 30 min): had an effect to reverse the effects of midazolam
reversal of the BIRD induced decrease in MV (0.1 mg/kg/min infusion, end of infusion period (t=38)): 100
adverse behavioral effects (rats, doses tested): no adverse behavioral effects observed
